Laboratory results as given in patent US11503828B2, “Antibacterial hydrophilic compound and use thereof” (SHENZHEN UNIVERSITY, priority 2017, dated 2022).

Legend:
[1] = Hydrophilicity (core height) of modified PET cloth, FIG. 5; assay type: physicochemical; details: modified PET cloth (B) vs unmodified PET (A)
Source text: FIG. 5 is a diagram illustrating hydrophilicity of PET cloth treated with an antibacterial hydrophilic compound according to Example 1 of the present disclosure.

Staphylococcus aureus = test: Antibacterial activity of modified PET cloth by plate counting method; assay type: cell-based; set-up: Antibacterial activity, Washing one time: concentration or dose not given beside the values; details: S. aureas
Method: (§1) The antibacterial hydrophilic compounds obtained in Examples 1-29 may be formulated into a finishing liquid having a mass concentration of 0.1-10% using water as a solvent, and the PET cloth may be impregnated and modified by the finishing liquid. After irradiation for 1 minute at ultraviolet light (wavelength: 254 nm), the antibacterial activity against Escherichia coli and Staphylococcus aureus may be tested by plate counting method, and their hydrophilicity (water contact angle of untreated PET may be 92 degrees) may be tested.

Escherichia coli = test: as above; assay type: cell-based; set-up: Antibacterial activity, Washing one time: concentration or dose not given beside the values; details: E. coli
Method: as §1

[2] = Hydrophilicity (water contact angle) of modified PET cloth; assay type: physicochemical; details: for Contact angel: water contact angle of PET cloth modified with finishing liquid, UV 254 nm 1 minute, untreated PET 92 degrees
Method: as §1
FIG. 3 illustrates a change in a contact angle of PET cloth treated or untreated by an antibacterial hydrophilic compound according to Example 13 of the present disclosure, where section (A) is a photograph of untreated PET cloth, and section (B) is a photograph of treated PET clot.

| SMILES | core height vs unmodified PET [1] | Antibacterial activity, Washing 50 times (Staphylococcus aureus) [%] | Antibacterial activity, Washing one time (Staphylococcus aureus) [%] | Antibacterial activity, Washing 50 times (Escherichia coli) [%] | Antibacterial activity, Washing one time (Escherichia coli) [%] | Contact angel [2] [degrees] | water contact angle of the treated PET cloth ([2]; FIG. 3, untreated PET cloth 92 degrees) [°] |
| --- | --- | --- | --- | --- | --- | --- | --- |
| C[N+](C)(CCCS(=O)(=O)[O-])c1ccc(C(=O)c2ccc([N+](C)(C)CCCS(=O)(=O)[O-])cc2)cc1 [Example 1] | significantly greater | 92.9 | 99.99 | 88.5 | 99.99 | 0 | – |
| C[N+](C)(CCCCS(=O)(=O)[O-])CCOc1ccc(C(=O)c2ccccc2)cc1 [Example 2] | – | 89.9 | – | 86.2 | 99.99 | 0 | – |
| CCOP(=O)([O-])OCC[N+](C)(C)Cc1ccc(C(=O)c2ccccc2)cc1 [Example 3] | – | 90.2 | 99.99 | 87.8 | 99.99 | 0 | – |
| C[N+](C)(CCC(=O)[O-])c1ccc(C(=O)Oc2ccc(C(=O)c3ccccc3)cc2)cc1 [Example 4] | – | 80.9 | 99.99 | 86.9 | 99.99 | 0 | – |
| C[N+](C)(CCS(=O)(=O)[O-])Cc1ccc(C(=O)c2ccccc2)cc1 [Example 6] | – | 89.7 | – | 86.6 | 99.99 | 0 | – |
| CCCCCCCC[N+](C)(C)CCOC(=O)Nc1ccc(C(=O)c2ccccc2)cc1.[Br-] [Example 11] | – | 99.9 | 99.99 | 92.8 | 99.99 | 0 | – |
| CCCCCCCCCCCC[N+](C)(C)c1ccc(C(=O)Oc2ccc(C(=O)c3ccccc3)cc2)cc1 [Example 13] | – | 96.9 | 99.99 | 91.7 | 99.99 | 0 | 0 |
| CCCCCCCCCCCC[N+](C)(C)Cc1ccc(C(=O)c2ccccc2)cc1 [Example 14] | – | 96.9 | 99.99 | 91.7 | 99.99 | 0 | – |
| CCCCCCCCCC[N+](C)(C)Cc1ccc(C(=O)c2ccc(C[N+](C)(C)CCCCCCCCCC)cc2)cc1 [Example 15] | – | 99.9 | – | 96.8 | 99.99 | 0 | – |
| CCCCCCCCCC[N+](C)(C)Cc1ccc2c(c1)C(=O)c1ccccc1C2=O [Example 16] | – | 98.5 | – | 91.7 | 99.99 | 0 | – |
| CCCCCCCCCCCC[N+](C)(C)CCOC(=O)Nc1ccc(C)c(NC(=O)Nc2ccccc2C(=O)c2ccc(Cl)cc2)c1 [Example 18] | – | 99.9 | 99.99 | 95.8 | 99.99 | 0 | – |
| CCCCCCCC[N+](C)(C)Cc1cn(Cc2ccc(C(=O)c3ccccc3)cc2)nn1 [Example 19] | – | 99.6 | 99.99 | 92.8 | 99.99 | 0 | – |
| CC1(C)C(=O)N(COC(=O)Nc2ccc(C(=O)c3ccccc3)cc2)C(C)(C)N1Cl [Example 26] | – | 99.9 | – | 97.9 | 99.99 | 45 | – |
| CC1(C)C(=O)N(Cc2ccc(C(=O)c3ccccc3)cc2)C(=O)N1Cl [Example 27] | – | 99.8 | – | 94.9 | 99.99 | 50 | – |
| CC1(C)C(=O)N(CC(O)CNCc2ccc(C(=O)c3ccccc3)cc2)C(=O)N1Cl (centres unmarked) [Example 28] | – | 99.9 | 99.99 | 95.1 | 99.99 | 40 | – |
